Reference: patent US10314323B2, “Methods for improving the condition of hair in non-human animals” (Hill's Pet Nutrition, Inc., priority 2012, dated 2019)
Entries after “also recorded” stand apart in the source; their conditions may differ.

Each compound was assayed on healthy adult cats (assay: Hair 18-MEA content after feeding amino acid supplemented diets to healthy cats). Details: versus control base diet, regression model with base line as covariant; p<0.05 for isoleucine and threonine, p>0.05 for leucine.
Assay type: in vivo, cat
Text: The hair was clipped from the left middle flank areas of 24 healthy adult cats. The clipped regions measured approximately 20.32 cm by 10.16 cm (about 8 inches by about 4 inches). Hair was clipped as close to the skin as possible. The cats were then fed a base diet consisting of a commercially available nutritionally complete food for a period of 90 days. The nutrient content of the base food is set out in Table 1. On day 90, newly grown hair was clipped from the left middle flanks of the cats. The clipped regions measured approximately 19.05 cm by 8.89 cm (about 7.5 inches by about 3.5 inches). Samples of the clipped hair from each cat were retained and analysed for their 18-MEA content in order to determine the base line levels. The cats were divided into four groups of 6. The age, sex and nurturing status of the cats were balanced between the groups. The groups were randomly assigned a diet selected from the base diet, the base diet plus supplemental leucine, the base diet plus supplemental isoleucine, and the base diet plus supplemental threonine as shown in Table 2. The groups were fed the assigned diets for 90 days. On day 180, the newly grown hair was clipped from the left middle flanks of the cats. The clipped regions measured approximately 17.78 cm by 7.62 cm (about 7 inches by about 3 inches). Samples of clipped hair from each cat were retained and analysed for 18-MEA content. For the 18-MEA analysis, hair samples were first washed with circulating ethyl ether for 6 hours to remove the surface lipids and oils. The hair samples were cut into pieces about 5 mm in length or less, digested and extracted for 18-MEA that was measured with a gas chromatograph. The 18-MEA data were analysed using a regression model. Hair 18-MEA content was the dependent variable, and diet was used as the independent variable. The base line data were used as the covariant.

Compound | Effect on 18-MEA concentration of the hair
C[C@@H](O)[C@H](N)C(=O)O [threonine, (2S, 3R)-2-amino-3-hydroxybutanoic acid] | increase; also recorded: significantly increased
CC(C)C[C@H](N)C(=O)O [Leucine, leucine, reference compound] | no significant effect
CC[C@H](C)[C@H](N)C(=O)O [isoleucine, (2S, 3S)-2-amino-3-methylpentanoic acid] | increase; also recorded: significantly increased
